According to paper PMC7226079, “Combining Virtual Screening Protocol and In Vitro Evaluation towards the Discovery of BACE1 Inhibitors” (Biomolecules, 2020):
“And” between values parts separate entries of the source, which are not always exact repeats. Identical values can stand only once. Like-named read-outs stand apart in the source and are kept apart here. Peptide text beside a SMILES is read from it. * marks the point of attachment. Cbz = O=C(OCc1ccccc1)*

Tests used:
BACE1 [1] = molecular target: T1, BACE1 (Homo sapiens, UniProt P56817); design: method as in ChEMBL23 [24]; settings: known BACE1 inhibitors of Training/Test sets; ref ChEMBL23 [24]; cited from earlier work
T1 construct: purchased Sigma-Aldrich Co. LLC; CS0010

BACE1 [2] = molecular target: T1, BACE1; assay: Cell-free FRET assay for BACE1 activity (β-Secretase (BACE1) Activity Detection Kit CS0010); format: biochemical; settings: for Average percent inhibition at 10 μM: Table S2, thirty-four in vitro tested compounds, mean of at least three independent experiments in triplicate
[3] = 10 μM, mean of at least three independent experiments performed in triplicate, read-out: Average Percent Inhibition at 10 μM

T1 sequence (P56817 46-501): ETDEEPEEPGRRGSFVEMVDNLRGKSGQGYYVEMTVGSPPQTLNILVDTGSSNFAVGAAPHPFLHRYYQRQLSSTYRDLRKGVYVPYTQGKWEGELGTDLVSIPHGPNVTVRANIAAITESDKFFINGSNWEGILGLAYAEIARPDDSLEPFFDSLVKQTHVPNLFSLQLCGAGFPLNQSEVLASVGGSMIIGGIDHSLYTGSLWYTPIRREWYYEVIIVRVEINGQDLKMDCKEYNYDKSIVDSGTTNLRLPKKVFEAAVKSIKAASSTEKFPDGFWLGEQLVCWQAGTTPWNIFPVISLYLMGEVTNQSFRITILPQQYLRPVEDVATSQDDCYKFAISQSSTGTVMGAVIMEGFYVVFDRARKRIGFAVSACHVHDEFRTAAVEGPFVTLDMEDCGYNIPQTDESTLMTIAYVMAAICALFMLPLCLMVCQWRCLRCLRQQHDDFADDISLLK

Compound | IC50 (BACE1 [1]) [nM] | further results
CN1C(=O)CC2(N=C1N)c1cc(-c3cccnc3F)ccc1Oc1c2cc(-c2ccnc(F)c2)nc1F (stereo not shown) [ChEMBL3639946] | 2.4 | 
Cc1cc(=O)oc2cc(OCC(O)CN3CCN(c4ccc(F)cc4)CC3)ccc12 (stereo not shown) [Compound 12] |  | inhibition at 10 µM (BACE1 [2]; [3]): 33.5%
COc1ccc(C(=O)/C=C/c2cn(CC(O)CN3CCN(C)CC3)c3ccccc23)cc1 (stereo not shown) [Compound 11] |  | inhibition at 10 µM (BACE1 [2]; [3]): 50.3%; IC50 (BACE1 [2]; from the dose-response curve (Figure 8)): 15400 nM and 15000 nM
COc1cc(C(O)C(O)c2cc(CN3CCOCC3)c(O)c(OC)c2)cc(CN2CCOCC2)c1O (stereo not shown) [NSC55229] |  | Average percent inhibition at 10 μM (BACE1 [2]; 10 μM): 12.1%
CC#CCOc1cnc(C(=O)Nc2ccc(Cl)c(C3(C(F)F)N=C(N)OC4CC43)c2)cn1 (stereo not shown) [Compound 4] | 3.9 | 
CCN(CC)CCNc1ccc(CO)c2oc3ccccc3c(=O)c12 [Compound 18] |  | inhibition at 10 µM (BACE1 [2]; [3]): 20.6%
O=C1c2ccccc2C(=O)c2c3c(cc(NCCNCCO)c21)N(CCO)CCN3 [Compound 20] |  | inhibition at 10 µM (BACE1 [2]; [3]): 19.5%
CC(=O)c1ccccc1OCC(O)CN1CCN(c2cccc(C(F)(F)F)c2)CC1 (stereo not shown) [NSC147843] |  | Average percent inhibition at 10 μM (BACE1 [2]; 10 μM): 9.6%
CC(C)C[C@H](NC(=O)[C@@H](NC(=O)[C@@H](N)CNC(=O)c1nn[nH]n1)C(C)C)C(=O)N[C@@H](Cc1ccccc1)[C@@H](O)C(=O)Nc1cc(-c2nn[nH]n2)cc(-c2nn[nH]n2)c1 [ChEMBL439521] | 1.2 | 
CC1=NC2(CC(C3CCOC(C)(C)C3)Oc3ccc(-c4cccc(Cl)c4)cc32)N=C1N (stereo not shown) [ChEMBL3653708] | 5 | 
CC(=O)c1ccc(OCC(O)CN2CCN(c3ccccc3)CC2)c(C)c1 (stereo not shown) [NSC147841] |  | Average percent inhibition at 10 μM (BACE1 [2]; 10 μM): 13.0%
CC(=O)[C@]1(O)Cc2c(O)c3c(c(O)c2[C@@H](O[C@H]2C[C@H](N)[C@H](O)[C@H](C)O2)C1)C(=O)c1ccccc1C3=O [Compound 21, idarubicin] |  | inhibition at 10 µM (BACE1 [2]; [3]): 18.1%
O=C1c2ccccc2C(=O)c2c(NCCCNCCO)ccc(NCCCNCCO)c21 [NSC278467] |  | Average percent inhibition at 10 μM (BACE1 [2]; 10 μM): 17.0%
CCc1cn2c3c(cc(C(=O)N[C@@H](Cc4ccccc4)[C@H](O)CNC4CC4)cc13)N(CC)S(=O)(=O)CC2 [ChEMBL533064] | 20 | 
CC(=O)c1cccc(OCC(O)CN2CCN(c3ccc(C)cc3)CC2)c1 (stereo not shown) [NSC147852] |  | Average percent inhibition at 10 μM (BACE1 [2]; 10 μM): 10.6%
CCc1ccc2c(c1)C1(N=C(N)N(C)O1)[C@]1(CC[C@H](OC)CC1)C2 (stereo partly shown) [ChEMBL3656204] | 521 | 
NC1=N[C@@]2(c3cc(-c4cccnc4F)ccc3Oc3c(F)cc(N4CCOCC4)cc32)c2nccn21 [ChEMBL3677276] | 0.7 | 
NC(Cc1ccccc1)C(=O)NCC(=O)NC(Cc1ccccc1)C(=O)NCC(=O)O (stereo not shown) [Compound 15] (H-FGFG-OH; configuration not given here) |  | inhibition at 10 µM (BACE1 [2]; [3]): 30.7%
O=C1c2ccccc2C(=O)c2c(NCCNCCO)ccc(NCCNCCO)c21 [NSC196473] |  | inhibition at 10 µM (BACE1 [2]; read-out: Average percent inhibition at 10 μM): 12.4%
O=C(C[n+]1ccccc1)Nc1cccc(C(=O)Nc2ccc(Cl)cc2)c1 [ChEMBL1163225] | 1000 | 
CC1(C)OCC(N)=N[C@](C)(c2cc(NC3COc4cc(Cl)ccc43)ccc2F)C1(F)F (stereo partly shown) [ChEMBL3670919] | 320 | 
Cc1ccc(S(=O)(=O)Oc2ccc3oc4c(CO)ccc(NCCN(C)C)c4c(=O)c3c2)cc1 [Compound 19] |  | inhibition at 10 µM (BACE1 [2]; [3]): 21.2%
NC1=NC2(CO1)c1cc(-c3cc(Cl)cnc3F)ccc1OC1(CCC1)C21COC1 (stereo not shown) [ChEMBL3703272] | 827 | 

Compound | IC50 (BACE1 [1]) [nM] | further results
O=C(Nc1cc(Br)ccc1N1CCNCC1)c1cccc2ccccc12 [ChEMBL203120] | 1000 | 
O=C(NC(Cc1cnc[nH]1)C(=O)NC(Cc1ccc(O)cc1)C(=O)O)OCc1ccccc1 (stereo not drawn) [NSC333463] (Cbz-His-Tyr-OH; configuration not given here) |  | Average percent inhibition at 10 μM (BACE1 [2]; 10 μM): 13.4%
CC1(c2cccc(NC(=O)c3ncc(Br)cn3)c2)COCC(N)=N1 (stereo not shown) [ChEMBL3653345] | 540 | 
COc1cc(F)c2c(c1)C1(N=C(N)n3ccnc31)c1cc(-c3cccnc3F)ccc1O2 (stereo not shown) [ChEMBL3677269] | 9 | 
[C-]#[N+]c1ccc(C(=O)Nc2ccc(F)c([C@]34COC[C@@]3(F)CSC(N)=N4)c2)nc1 [ChEMBL3672943] | 6.6 | 
NC1=NC2(CO1)c1cc(NC(=O)c3ncc(Br)cn3)ccc1OCC21CC1 (stereo not shown) [ChEMBL3650820] | 661 | 
CC(=O)c1ccccc1OCC(O)CN1CCN(c2ccccc2)CC1 (stereo not shown) [NSC147850] |  | Average percent inhibition at 10 μM (BACE1 [2]; 10 μM): 8.7%
COC1CCC2(CC1)Cc1ccc(-c3cccc(C#N)c3)cc1C21N=C(N)c2ccccc21 (stereo not shown) [ChEMBL3673221] | 6 | 
CC(=O)Nc1ccc(N2C(=O)CC(NCc3ccc(Cl)cc3Cl)C2=O)cc1 (stereo not shown) [Compound 14] |  | inhibition at 10 µM (BACE1 [2]; [3]): 31.3%
NC1=N[C@@]2(CCOC1)c1cc(-c3cccnc3F)ccc1Oc1cnc(-c3ccc(F)c(F)c3)cc12 [ChEMBL2152912] | 2 | 
O=C1c2c(O)ccc(O)c2C(=O)c2c(NCCNCCO)ccc(NCCNCCO)c21 [Compound 17, mitoxantrone] |  | inhibition at 10 µM (BACE1 [2]; [3]): 22.6%
NC1=NC(c2ccncc2)(c2cccc(-c3cncc(F)c3)c2)c2cccc(F)c21 (stereo not shown) [ChEMBL2177905] | 137 | 
Cc1cc(C2(c3cccc(-c4cncnc4)c3)N=C(N)N(C)C2=O)ccn1 (stereo not shown) [ChEMBL598258] | 80 | 
CC(C)c1ccc(CO[C@H]2CN(S(=O)(=O)c3ccccc3)C[C@@H]2Nc2nc3cc(F)ccc3[nH]2)cc1 [ChEMBL3746896] | 480 | 
N#CC(NCCCNC(C#N)c1ccccc1)c1ccccc1 (stereo not shown) [NSC81537] |  | Average percent inhibition at 10 μM (BACE1 [2]; 10 μM): 8.6%
CC(CCc1ccc(O)cc1)NCCc1ccc(O)c(O)c1 (stereo not shown) [Compound 16, dobutamine] |  | inhibition at 10 µM (BACE1 [2]; [3]): 29.9%
NC1=NC(c2ccccc2)(C2CCCCC2)C(=O)N1CCCCCC(=O)O (stereo not shown) [ChEMBL607527] | 950 | 
NC1=N[C@](CF)(c2cc(NC(=O)c3cc4ccccc4cn3)ccc2F)[C@H]2C[C@H]2O1 [ChEMBL3688633] | 500 | 
O=C(CCc1ccccc1)c1ccccc1OCC(O)CN1CCCCC1 (stereo not shown) [Compound 13] |  | inhibition at 10 µM (BACE1 [2]; [3]): 34.7%
CCO[C@H]1CC[C@]2(CC1)Cc1ccc(-c3cccc(OC)c3)cc1C21N=C(N)N(C)C1=O (stereo partly shown) [ChEMBL3978126] | 15 | 
CC1(C)N=C(N)N=C(N)N1c1cccc(OCCCOc2ccc(NC(=O)CBr)cc2)c1 [Compound 22] |  | inhibition at 10 µM (BACE1 [2]; [3]): 18.1%
NC1=N[C@@]2(CO1)c1cc(-c3cccnc3F)ccc1Oc1c2cc(N2CCOCC2)nc1F [ChEMBL3394224] | 0.3 | 
